# What was measured:
# Assay in all cases: cells
# Format in all cases: cell-based
# [1] = tested on: Non-small-cell lung cancer cell lines; details: Homo sapiens; Non-small-cell lung; average of cell lines of the cancer type; read-out: Log10 GI50 mean graph midpoint (MG_MID) (converted)
# From the text: (§1) The mean graph midpoint values of Log10 GI50 as well as Log10 LC50 for the compounds 2i, 5i and Hoechst 33258 (NSC-322921) is listed in Table 2.
# (§2) Each cancer type represents the average of six to eight different cancer cell lines.
# Colon cancer cell lines = details: Homo sapiens; Colon; average of cell lines of the cancer type; read-out: Log10 GI50 mean graph midpoint (MG_MID) (converted)
# From the text: as §1, §2
# [2] = tested on: Leukemia cancer cell lines; details: Homo sapiens; Leukemia; average of cell lines of the cancer type; read-out: Log10 GI50 mean graph midpoint (MG_MID) (converted)
# From the text: as §1, §2
# Renal cancer cell lines = details: Homo sapiens
# From the text: as §1, §2
# CNS cancer cell lines = details: Homo sapiens
# From the text: as §1, §2
# [3] = tested on: Prostate cancer cell lines; details: Homo sapiens
# From the text: as §1, §2
# [4] = tested on: Ovarian cancer cell lines; details: Homo sapiens
# From the text: as §1, §2
# [5] = tested on: Melanoma cancer cell lines; details: Homo sapiens; Melanoma; average of cell lines of the cancer type; read-out: Log10 GI50 mean graph midpoint (MG_MID) (converted)
# From the text: as §1, §2
# Breast cancer cell lines = details: Homo sapiens
# From the text: as §1, §2
# [6] = read-out: Log10 LC50 mean graph midpoint (MG_MID) (converted)
structure (smiles),measurement,setting,value
"CN1CCN(c2ccc3nc(-c4ccc5nc(-c6ccc(O)cc6)[nH]c5c4)[nH]c3c2)CC1 [Hoechst 33258, reference compound]",GI50,[1],115 µM
same,GI50,Colon cancer cell lines,79.4 µM
same,GI50,[2],18.6 µM
same,CC50,Renal cancer cell lines; [6],1260 µM
same,GI50,"Renal cancer cell lines; Renal, average of cell lines of the cancer type, read-out: Log10 GI50 mean graph midpoint (MG_MID) (converted)",166 µM
same,CC50,CNS cancer cell lines; [6],1320 µM
same,GI50,"CNS cancer cell lines; CNS, average of cell lines of the cancer type, read-out: Log10 GI50 mean graph midpoint (MG_MID) (converted)",132 µM
same,CC50,[3]; [6],1410 µM
same,GI50,"[3]; Prostate, average of cell lines of the cancer type, read-out: Log10 GI50 mean graph midpoint (MG_MID) (converted)",631 µM
same,CC50,[4]; [6],1200 µM
same,GI50,"[4]; Ovarian, average of cell lines of the cancer type, read-out: Log10 GI50 mean graph midpoint (MG_MID) (converted)",195 µM
same,GI50,[5],25.1 µM
same,CC50,Breast cancer cell lines; [6],1450 µM
same,GI50,"Breast cancer cell lines; Breast, average of cell lines of the cancer type, read-out: Log10 GI50 mean graph midpoint (MG_MID) (converted)",21.4 µM
